# From patent publication US20260285850A1, “SUBSTITUTED OXAZOLIDINONES AND IMIDAZOLINONES AS HERBICIDES” (FMC CORPORATION, priority 2023, published 2026)
# Tests used:
# Type in all cases: in vivo
# [1] = system: barnyardgrass (Echinochloa crus-galli); assay: Test A postemergence application, visual injury rating 0-100
# Method in brief: (§1)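 Rating: visual, day 10, untreated plants as reference, 0 no effect to 100 full control. Plants were in loam-sand and were treated either preemergence via directed soil spray or postemergence at the one- to two-leaf stage.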
# [2] = system: blackgrass (Alopecurus myosuroides); assay: as above
# Method in brief: as §1
# [3] = system: galium (catchweed bedstraw, Galium aparine); assay: as above
# Method in brief: as §1
# [4] = system: wheat (Triticum aestivum); assay: as above
# Method in brief: as §1
# [5] = system: ryegrass, Italian (italian ryegrass, Lolium multiflorum); assay: as above
# Method in brief: as §1
# [6] = system: horseweed (Erigeron canadensis); assay: as above
# Method in brief: as §1
# soybean (Glycine max) [7] = assay: as above
# Method in brief: as §1
# [8] = system: palmer (palmer amaranth, palmer pigweed, Amaranthus palmeri); assay: as above
# Method in brief: as §1
# kochia (Bassia scoparia) [9] = assay: as above
# Method in brief: as §1
# [10] = system: ragweed (common ragweed, Ambrosia artemisiifolia); assay: as above
# Method in brief: as §1
# corn (Zea mays) [11] = assay: as above
# Method in brief: as §1
# [12] = system: green foxtail (Setaria viridis); assay: as above
# Method in brief: as §1
# [13] = system: oat, wild (wild oat, Avena fatua); assay: as above
# Method in brief: as §1
# [14] = system: barnyardgrass (Echinochloa crus-galli); assay: Test A preemergence soil spray, visual injury rating 0-100; settings: 10 days
# Method in brief: as §1
# [15] = system: blackgrass (Alopecurus myosuroides); assay: as above; settings: 10 days
# Method in brief: as §1
# [16] = system: wheat (Triticum aestivum); assay: as above; settings: 10 days
# Method in brief: as §1
# [17] = system: ryegrass, Italian (italian ryegrass, Lolium multiflorum); assay: as above; settings: 10 days
# Method in brief: as §1
# soybean (Glycine max) [18] = assay: as above; settings: 10 days
# Method in brief: as §1
# [19] = system: palmer (palmer amaranth, palmer pigweed, Amaranthus palmeri); assay: as above; settings: 10 days
# Method in brief: as §1
# kochia (Bassia scoparia) [20] = assay: as above; settings: 10 days
# Method in brief: as §1
# [21] = system: ragweed (common ragweed, Ambrosia artemisiifolia); assay: as above; settings: 10 days
# Method in brief: as §1
# corn (Zea mays) [22] = assay: as above; settings: 10 days
# Method in brief: as §1
# [23] = system: green foxtail (Setaria viridis); assay: as above; settings: 10 days
# Method in brief: as §1
# [24] = system: oat, wild (wild oat, Avena fatua); assay: as above; settings: 10 days
# Method in brief: as §1
# [25] = system: ducksalad (Heteranthera limosa); assay: Test B flooded paddy test, visual plant response rating 0-100; settings: 250 g ai/ha, Flood, applied to paddy water, evaluated after 13 days
# Method in brief: (§2)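 Greenhouse, 13 d. Seedlings at 2-leaf stage, pots flooded to 3 cm, compound delivered into floodwater, water level held constant. Evaluated visually relative to controls.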
# [26] = system: barnyardgrass (Echinochloa crusgalli); assay: as above; settings: 250 g ai/ha, Flood, applied to paddy water, evaluated after 13 days
# Method in brief: as §2
# rice (Oryza sativa) = assay: as above; settings: 250 g ai/ha, Flood, applied to paddy water, evaluated after 13 days
# Method in brief: as §2
# [27] = system: sedge, umbrella (small-flower umbrella sedge, Cyperus difformis); assay: as above; settings: 250 g ai/ha, Flood, applied to paddy water, evaluated after 13 days
# Method in brief: as §2
# [28] = 62 g ai/ha, postemergence, 10 days, 0 = no effect, 100 = complete control
# [29] = Postemergence, 16 g ai/ha, greenhouse 10 days, 0 no effect, 100 complete control
# [30] = 62 g ai/ha, 0 = no effect, 100 = complete control
smiles,measurement,setting,value
CC1(C(=O)NC2C=CC(C(=O)O)C2)CN(c2cc(F)cc(F)c2)C(=O)O1 (stereo not shown) [Compound 138],Barnyardgrass plant response rating (0-100),[1]; [28],80
same,Barnyardgrass plant response rating (0 to 100 scale),[1]; [29],70
same,Blackgrass plant response rating (0-100),[2]; [28],90
same,Blackgrass plant response rating (0 to 100 scale),[2]; [29],70
same,Galium plant response rating (0-100),[3]; [28],90
same,Galium plant response rating (0 to 100 scale),[3]; [29],90
same,Wheat plant response rating (0-100),[4]; [28],90
same,Wheat plant response rating (0 to 100 scale),[4]; [29],90
same,"Ryegrass, Italian plant response rating (0-100)",[5]; [28],90
same,"Ryegrass, Italian plant response rating (0 to 100 scale)",[5]; [29],60
same,Horseweed plant response rating (0-100),[6]; [28],80
same,Horseweed plant response rating (0 to 100 scale),[6]; [29],50
same,Soybean plant response rating (0-100),soybean (Glycine max) [7]; [28],60
same,Soybean plant response rating (0 to 100 scale),soybean (Glycine max) [7]; [29],60
same,"Pigweed, Palmer plant response rating (0-100)",[8]; [28],90
same,"Pigweed, Palmer plant response rating (0 to 100 scale)",[8]; [29],90
same,Kochia plant response rating (0-100),kochia (Bassia scoparia) [9]; [28],80
same,Kochia plant response rating (0 to 100 scale),kochia (Bassia scoparia) [9]; [29],80
same,Ragweed plant response rating (0-100),[10]; [28],80
same,Ragweed plant response rating (0 to 100 scale),[10]; [29],60
same,Corn plant response rating (0-100),corn (Zea mays) [11]; [28],100
same,Corn plant response rating (0 to 100 scale),corn (Zea mays) [11]; [29],100
same,"Foxtail, Green plant response rating (0-100)",[12]; [28],90
same,"Foxtail, Green plant response rating (0 to 100 scale)",[12]; [29],80
same,"Oat, Wild plant response rating (0-100)",[13]; [28],90
same,"Oat, Wild plant response rating (0 to 100 scale)",[13]; [29],90
same,Barnyardgrass plant response rating,"[14]; 16 g ai/ha, 0 to 100 scale",60
same,Barnyardgrass plant response rating (0-100),[14]; [30],100
same,Blackgrass plant response rating,"[15]; 16 g ai/ha, 0 to 100 scale",40
same,Blackgrass plant response rating (0-100),[15]; [30],70
same,Wheat plant response rating,"[16]; 16 g ai/ha, 0 to 100 scale",50
same,Wheat plant response rating (0-100),[16]; [30],90
same,"Ryegrass, Italian plant response rating","[17]; 16 g ai/ha, 0 to 100 scale",70
same,"Ryegrass, Italian plant response rating (0-100)",[17]; [30],90
same,Soybean plant response rating,"soybean (Glycine max) [18]; 16 g ai/ha, 0 to 100 scale",30
same,Soybean plant response rating (0-100),soybean (Glycine max) [18]; [30],80
same,"Pigweed, Palmer plant response rating","[19]; 16 g ai/ha, 0 to 100 scale",30
same,"Pigweed, Palmer plant response rating (0-100)",[19]; [30],90
same,Kochia plant response rating,"kochia (Bassia scoparia) [20]; 16 g ai/ha, 0 to 100 scale",90
same,Kochia plant response rating (0-100),kochia (Bassia scoparia) [20]; [30],90
same,Ragweed plant response rating,"[21]; 16 g ai/ha, 0 to 100 scale",0
same,Ragweed plant response rating (0-100),[21]; [30],40
same,Corn plant response rating,"corn (Zea mays) [22]; 16 g ai/ha, 0 to 100 scale",60
same,Corn plant response rating (0-100),corn (Zea mays) [22]; [30],90
same,"Foxtail, Green plant response rating","[23]; 16 g ai/ha, 0 to 100 scale",20
same,"Foxtail, Green plant response rating (0-100)",[23]; [30],90
same,"Oat, Wild plant response rating","[24]; 16 g ai/ha, 0 to 100 scale",50
same,"Oat, Wild plant response rating (0-100)",[24]; [30],90
same,"Plant response rating, Ducksalad (0 to 100 scale, 0 is no effect and 100 is complete control)",[25],100
same,"Plant response rating, Barnyardgrass (0 to 100 scale, 0 is no effect and 100 is complete control)",[26],95
same,"Plant response rating, Rice (0 to 100 scale, 0 is no effect and 100 is complete control)",rice (Oryza sativa),95
same,"Plant response rating, Sedge, Umbrella (0 to 100 scale, 0 is no effect and 100 is complete control)",[27],95
